Values after ≈ are worked out from the molar mass of the structure shown. Values joined by “and” are separate entries in the source; they are usually repeats but may differ in a detail not shown here. Identical values can stand only once. Blank lines part the entries; values can stand above or below the compound they belong to.
Key:
Test in all cases: ≥ marks a high value that may be exact or a test limit, other limits are often not marked, values filed in µg/mL are converted to µM
Bacillus subtilis 168 HT = tested on: Bacillus subtilis 168 HT
Escherichia coli MG1655 = tested on: Escherichia coli MG1655
[1] = tested on: Burkholderia thailandensis
[2] = tested on: Bacillus subtilis ATCC 9372
[3] = tested on: Bacillus anthracis Sterne 34F2
[4] = tested on: Pseudomonas aeruginosa ATCC 27853
[5] = tested on: Klebsiella pneumoniae ATCC 700603
[6] = tested on: Staphylococcus aureus ATCC 33591
[7] = tested on: Staphylococcus aureus ATCC 700699
[8] = tested on: Staphylococcus aureus ATCC 29213
[9] = tested on: Escherichia coli ATCC 25922
Staphylococcus aureus = tested on: Staphylococcus aureus
[10] = tested on: Salmonella enterica subsp. enterica serovar Typhimurium C77-31
[11] = tested on: Salmonella enterica subsp. enterica serovar Pullorum C79-13
[12] = tested on: Enterococcus faecalis ATCC 29212
[13] = tested on: Staphylococcus aureus ATCC 43300
[14] = tested on: Staphylococcus epidermidis ATCC 12228
Escherichia coli UB1005 = tested on: Escherichia coli UB1005
[15] = tested on: Salmonella enterica subsp. enterica serovar Choleraesuis CVCC 503
[16] = tested on: Salmonella enterica subsp. enterica serovar Typhimurium ATCC 14028
Streptococcus agalactiae = tested on: Streptococcus agalactiae
[17] = tested on: Pseudomonas aeruginosa H103
[18] = tested on: Salmonella enterica serovar Typhimurium
Candida albicans = tested on: Candida albicans
[19] = tested on: Staphylococcus aureus ATCC 25923
[20] = tested on: Staphylococcus epidermidis

Structure (SMILES): CSCC[C@H](NC(=O)[C@H](CCCCN)NC(=O)[C@H](CCCCN)NC(=O)[C@H](CC(C)C)NC(=O)[C@H](CC(C)C)NC(=O)[C@H](CCCN=C(N)N)NC(=O)[C@H](CCCN=C(N)N)NC(=O)[C@H](CCCCN)NC(=O)[C@H](C)N)C(=O)N[C@@H](CCCCN)C(=O)O [AKRRLLKKMK]
MIC (Bacillus subtilis 168 HT): ≥ 101 µM | MIC (Escherichia coli MG1655): ≥ 101 µM

Structure (SMILES): CSCC[C@H](NC(=O)[C@H](Cc1ccccc1)NC(=O)CNC(=O)CNC(=O)[C@H](Cc1ccc(O)cc1)NC(=O)[C@H](CCCN=C(N)N)NC(=O)[C@H](CCCCN)NC(=O)[C@H](CCC(=O)O)NC(=O)[C@H](CCSC)NC(=O)[C@H](CCC(=O)O)NC(=O)[C@@H]1CCCN1C(=O)[C@@H]1CCCN1C(=O)[C@H](CCC(=O)O)NC(=O)[C@H](CCCCN)NC(=O)[C@H](CO)NC(=O)[C@H](Cc1ccc(O)cc1)NC(=O)[C@H](CO)NC(=O)[C@H](CCC(=O)O)NC(=O)CNC(=O)[C@H](CCC(=O)O)NC(=O)[C@H](CCC(=O)O)NC(=O)[C@H](CCC(=O)O)NC(=O)[C@H](CO)NC(=O)[C@@H]1CCCN1C(=O)[C@H](CC(C)C)NC(=O)[C@@H]1CCCN1C(=O)[C@H](CCC(=O)O)NC(=O)[C@H](C)NC(=O)[C@H](Cc1ccccc1)NC(C)=O)C(N)=O [FAEPLPSEEEGESYSKEPPEMEKRYGGFM]
MIC [1]: ≥ 50 µM | MIC [2]: ≥ 100 µM | MIC [3]: ≥ 100 µM

Structure (SMILES): CC[C@H](C)[C@H](NC(=O)[C@H](C)NC(=O)[C@@H](NC(=O)[C@@H](NC(=O)CN)C(C)C)C(C)C)C(=O)N[C@@H](CC(C)C)C(=O)N[C@@H](CCCCN)C(=O)NCC(=O)N[C@@H](C)C(=O)N[C@@H](C)C(=O)N[C@@H](CCCCN)C(=O)N[C@@H](CC(=O)O)C(=O)N[C@H](C(=O)N[C@@H](C)C(=O)NCC(=O)N[C@@H](Cc1cnc[nH]1)C(=O)N[C@@H](CC(C)C)C(=O)N[C@@H](C)C(=O)N[C@@H](CO)C(=O)N[C@@H](CCCCN)C(=O)N[C@H](C(=O)N[C@@H](CCSC)C(=O)N[C@@H](CC(N)=O)C(=O)N[C@@H](CCCCN)C(=O)N[C@@H](CC(C)C)C(N)=O)C(C)C)[C@@H](C)CC [GVVAILKGAAKDIAGHLASKVMNKL]
MIC [4]: > 100 µM | MIC [5]: 50 µM (≈ 125 µg/mL) | MIC [6]: ≥ 100 µM | MIC [7]: ≥ 100 µM | MIC [8]: > 100 µM | MIC [9]: 50 µM (≈ 125 µg/mL)

Structure (SMILES): CC[C@H](C)[C@H](NC(=O)CNC(=O)[C@@H](NC(=O)[C@H](CCCCN)NC(=O)[C@H](CCCCN)NC(=O)CNC(=O)[C@@H](NC(=O)[C@H](CCCCN)NC(=O)[C@H](Cc1c[nH]c2ccccc12)NC(=O)[C@H](CCCCN)NC(=O)[C@H](CCSC)NC(C)=O)[C@@H](C)CC)[C@@H](C)CC)C(=O)NCC(=O)N[C@@H](CCCCN)C(=O)N[C@@H](Cc1ccccc1)C(=O)N[C@@H](CC(C)C)C(=O)N[C@@H](Cc1cnc[nH]1)C(=O)N[C@@H](CO)C(=O)N[C@@H](C)C(=O)N[C@@H](CCCCN)C(=O)N[C@@H](CCCCN)C(=O)N[C@@H](Cc1ccccc1)C(=O)N[C@@H](CC(N)=O)C(N)=O [MKWKIGKKIGIGKFLHSAKKFN]
MIC [1]: ≥ 50 µM | MIC [2]: ≥ 100 µM | MIC [3]: ≥ 100 µM

Continued, in another order:

MIC [4]: 100 µM (≈ 256 µg/mL) | MIC [5]: 50 µM (≈ 128 µg/mL) | MIC [6]: ≥ 100 µM | MIC [7]: ≥ 100 µM | MIC [8]: > 100 µM | MIC [9]: 25 µM (≈ 64.1 µg/mL)
Structure (SMILES): CC[C@H](C)[C@H](NC(=O)[C@H](CC(=O)O)NC(=O)[C@H](CCCCN)NC(=O)[C@H](C)NC(=O)[C@H](C)NC(=O)[C@H](C)NC(=O)[C@H](CCCCN)NC(=O)[C@H](CC(C)C)NC(=O)[C@@H](NC(=O)[C@H](CC(=O)O)NC(=O)[C@@H](NC(=O)[C@@H](NC(=O)CN)C(C)C)C(C)C)[C@@H](C)CC)C(=O)N[C@@H](C)C(=O)NCC(=O)N[C@@H](Cc1cnc[nH]1)C(=O)N[C@@H](CC(C)C)C(=O)N[C@@H](C)C(=O)N[C@@H](CO)C(=O)N[C@@H](CCCCN)C(=O)N[C@H](C(=O)N[C@@H](CCSC)C(=O)N[C@@H](CC(N)=O)C(=O)N[C@@H](CCCCN)C(=O)N[C@@H](CC(C)C)C(N)=O)C(C)C [GVVDILKAAAKDIAGHLASKVMNKL]

MIC (Staphylococcus aureus): 16 µM (≈ 49.4 µg/mL) | MIC [10]: 2 µM (≈ 6.17 µg/mL) | MIC [11]: 8 µM (≈ 24.7 µg/mL) | MIC [12]: 32 µM (≈ 98.8 µg/mL) | MIC [13]: 16 µM (≈ 49.4 µg/mL) | MIC [14]: 16 µM (≈ 49.4 µg/mL) | MIC (Escherichia coli UB1005): 1 µM (≈ 3.09 µg/mL) | MIC [16]: 2 µM (≈ 6.17 µg/mL) | MIC [8]: 32 µM and 64 µM | MIC (Streptococcus agalactiae): 16 µM (≈ 49.4 µg/mL)
Structure (SMILES): CC[C@H](C)[C@H](N)C(=O)N[C@H](C(=O)N[C@@H](CS)C(=O)N[C@@H](CCCN=C(N)N)C(=O)N[C@@H](CCCCN)C(=O)N1CCC[C@H]1C(=O)N[C@H](C(=O)N[C@H](C(=O)N[C@@H](CS)C(=O)N[C@@H](CCCN=C(N)N)C(=O)N[C@@H](CCCCN)C(=O)N1CCC[C@H]1C(=O)N[C@H](C(=O)N[C@H](C(=O)N[C@@H](CS)C(=O)N[C@@H](CCCN=C(N)N)C(=O)N[C@@H](CCCCN)C(=O)N1CCC[C@H]1C(=O)N[C@H](C(=O)N[C@H](C(=O)N[C@@H](CS)C(=O)N[C@@H](CCCN=C(N)N)C(=O)N[C@@H](CCCCN)C(=O)N1CCC[C@H]1C(=O)N[C@H](C(=O)N[C@H](C(N)=O)[C@@H](C)CC)[C@@H](C)CC)[C@@H](C)CC)[C@@H](C)CC)[C@@H](C)CC)[C@@H](C)CC)[C@@H](C)CC)[C@@H](C)CC)[C@@H](C)CC [IICRKPIICRKPIICRKPIICRKPII]
MIC [15]: 4 µM (≈ 12.3 µg/mL)

MIC (Bacillus subtilis 168 HT): ≥ 71.5 µM | MIC (Escherichia coli MG1655): ≥ 71.5 µM
Structure (SMILES): CC(C)[C@H](NC(=O)[C@H](CCC(N)=O)NC(=O)[C@H](CS)NC(=O)[C@H](C)NC(=O)[C@H](CCCCN)NC(=O)[C@H](CCCN=C(N)N)NC(=O)[C@H](CC(N)=O)NC(=O)[C@H](CCCCN)NC(=O)[C@H](CCCCN)NC(=O)[C@H](Cc1c[nH]c2ccccc12)NC(=O)[C@@H](NC(=O)[C@H](CCCCN)NC(=O)CNC(=O)[C@@H](N)CC(N)=O)[C@@H](C)O)C(=O)N[C@@H](CCCCN)C(=O)O [NGKTWKKNRKACQVK]

MIC [17]: 16.6 µM (≈ 24.4 µg/mL) | MIC [18]: 8.3 µM (≈ 12.2 µg/mL) | MIC (Candida albicans): 4.1 µM (≈ 6.04 µg/mL) | MIC [12]: 4.1 µM (≈ 6.04 µg/mL) | MIC (Escherichia coli UB1005): 4.1 µM (≈ 6.04 µg/mL) | MIC [19]: 2.1 µM (≈ 3.09 µg/mL) | MIC [20]: 0.5 µM (≈ 0.736 µg/mL)
Structure (SMILES): CC(C)C[C@H](NC(=O)[C@@H](N)CCCN=C(N)N)C(=O)N[C@@H](Cc1c[nH]c2ccccc12)C(=O)N[C@@H](Cc1c[nH]c2ccccc12)C(=O)N[C@@H](Cc1c[nH]c2ccccc12)C(=O)N[C@@H](Cc1c[nH]c2ccccc12)C(=O)N[C@@H](CCCN=C(N)N)C(=O)N[C@@H](CCCN=C(N)N)C(=O)N[C@@H](CCCCN)C(=O)O [RLWWWWRRK]

MIC (Bacillus subtilis 168 HT): 8.6 µM (≈ 16 µg/mL) | MIC (Escherichia coli MG1655): 17.2 µM (≈ 32.1 µg/mL)
Structure (SMILES): CC(C)C[C@H](NC(=O)[C@H](Cc1ccccc1)NC(=O)[C@H](CS)NC(=O)[C@@H](NC(=O)[C@H](CC(C)C)NC(=O)[C@H](CCCN=C(N)N)NC(=O)[C@H](Cc1c[nH]c2ccccc12)NC(=O)[C@@H](N)CCCN=C(N)N)C(C)C)C(=O)N[C@@H](CS)C(=O)N[C@@H](CCCN=C(N)N)C(=O)N[C@@H](CCCN=C(N)N)C(=O)N[C@@H](CCCCN)C(=O)N[C@@H](CCCCN)C(=O)N[C@H](C(=O)O)C(C)C [RWRLVCFLCRRKKV]

MIC (Staphylococcus aureus): > 64 µM | MIC [10]: 16 µM (≈ 33.1 µg/mL) | MIC [11]: ≥ 64 µM | MIC [12]: > 64 µM | MIC [13]: > 64 µM | MIC [14]: > 64 µM | MIC (Escherichia coli UB1005): 16 µM (≈ 33.1 µg/mL) | MIC [16]: 8 µM (≈ 16.5 µg/mL) | MIC [8]: > 64 µM | MIC (Streptococcus agalactiae): ≥ 64 µM | MIC [9]: 8 µM (≈ 16.5 µg/mL)
Structure (SMILES): CC(C)[C@H](N)C(=O)N[C@@H](CS)C(=O)N[C@@H](CCCN=C(N)N)C(=O)N[C@@H](CCCCN)C(=O)N1CCC[C@H]1C(=O)N[C@H](C(=O)N[C@H](C(=O)N[C@@H](CS)C(=O)N[C@@H](CCCN=C(N)N)C(=O)N[C@@H](CCCCN)C(=O)N1CCC[C@H]1C(=O)N[C@H](C(=O)N[C@H](C(=O)N[C@@H](CS)C(=O)N[C@@H](CCCN=C(N)N)C(=O)N[C@@H](CCCCN)C(=O)N1CCC[C@H]1C(=O)N[C@H](C(N)=O)C(C)C)C(C)C)C(C)C)C(C)C)C(C)C [VCRKPVVCRKPVVCRKPV]
MIC [15]: ≥ 64 µM

Source: DBAASP
